Here are results for 15 molecules from ChEMBL document CHEMBL3407442, “Synthesis and biological evaluation of α-aryl-α-tetralone derivatives as hepatitis C virus inhibitors” (Eur J Med Chem, 2015).

The subject of series [1] is Hepatitis C virus. Kind of series: Antiviral activity against HCV genotype 1b infected in human Huh7/Rep-Feo1b replicon cells assessed as inhibition of viral viral RNA replication at 50 uM incubated for 48 hrs by luciferase reporter gene assay. It is filed as functional, Hepacivirus hominis. The settings on record: Huh-7, 48 h.
In series [2] the test system is Hepatitis C virus. Kind of series: Antiviral activity against HCV genotype 1b infected in human Huh7/Rep-Feo1b replicon cells assessed as inhibition of viral viral RNA replication incubated for 48 hrs by luciferase reporter gene assay. It counts as functional, cell-based, Hepacivirus hominis. The settings on record: Huh-7, 48 h.
Series [3] in a line: Cytotoxicity against human Huh7.5 cells by MTS assay. It is filed as cell-based, Huh-7.
Series [4] in a line: Selectivity index, ratio of CC50 for human Huh7.5 cells to EC50 for HCV genotype 1b infected in human Huh7/Rep-Feo1b replicon cells. Also noted: species or system Huh-7.
In series [5] the test system is Hepatitis C virus. Kind of series: Antiviral activity against HCV genotype 2a infected in human Huh7.5-FGR-JC1-Rluc2A replicon cells assessed as inhibition of viral viral RNA replication at 50 uM incubated for 48 hrs by luciferase reporter gene assay. It counts as functional, Hepacivirus hominis. The settings on record: Huh-7, 48 h.
In series [6] the test system is Hepatitis C virus. Kind of series: Antiviral activity against HCV genotype 2a infected in human Huh7.5-FGR-JC1-Rluc2A replicon cells assessed as inhibition of viral viral RNA replication incubated for 48 hrs by luciferase reporter gene assay. It counts as functional, cell-based, Hepacivirus hominis. As to conditions: Huh-7, 48 h.
The nature of series [7]: Selectivity index, ratio of CC50 for human Huh7.5 cells to EC50 for HCV genotype 2a infected in human Huh7.5-FGR-JC1-Rluc2A replicon cells. Also noted: species or system Huh-7.

Where only a bound is given, the exact number is not on record here.

Take `COc1ccccc1C1CCc2ccccc2C1=O` (centres undefined): the inhibition at 50 µM in series [1] is 48.4%; in series [5], 84.4%. Besides, the EC50 is 50.1 µM in series [2] and 14.3 µM in series [6]. Also, it took 117 µM to reach half-maximal cytotoxicity in series [3] (CC50). Also, the “Ratio CC50/EC50” value came out at 2.3 in series [4] and 8.2 in series [7].

On to `COc1ccc(C2CCc3ccccc3C2=O)c(OC)c1` (centres undefined), for which the inhibition at 50 µM is 55.6% in series [1] and 83.9% in series [5]. For the same molecule, the EC50 in series [2] was 44.3 µM; in series [6], 11 µM. Half-maximal cytotoxicity in series [3] (CC50) was put at 63.6 µM. The “Ratio CC50/EC50” value in series [4] is given as 1.4; in series [7] it was 5.7.

With `COc1ccc2c(c1)CCC(c1ccccc1OC)C2=O` (centres undefined), the figures for the inhibition at 50 µM in series [1] and in series [5] were 86.4% and 88.8%, respectively. In addition, the results for the EC50 in series [2] and in series [6] were 10.6 µM and 1.5 µM, respectively. In series [3], this molecule showed a CC50 of 152 µM. Moreover, the entries for the “Ratio CC50/EC50” value in series [4] and in series [7] were 14.3 and 101.4, respectively.

As to `COc1ccc2c(c1)CCC(c1ccc(OC)cc1OC)C2=O` (centres undefined), the inhibition at 50 µM in series [1] was found to be 89.5%; in series [5] it was 93.4%. Moreover, the EC50 was 7.5 µM in series [2] and 3.3 µM in series [6]. In series [3], the 50% cytotoxic concentration (CC50) is under 50 µM. In addition, the “Ratio CC50/EC50” value is under 6.6 in series [4] and under 15.3 in series [7].

As for `COc1ccc2c(c1)C(=O)C(c1ccccc1OC)CC2` (centres undefined), the inhibition at 50 µM in series [1] was determined as 85.4%; in series [5], 91.8%. For the same molecule, the EC50 is 29.5 µM in series [2] and 3.6 µM in series [6]. Moreover, the half-maximal cytotoxic concentration (CC50) in series [3] came out at 111 µM. The entries for the “Ratio CC50/EC50” value in series [4] and in series [7] were 3.7 and 30.8, respectively.

Consider `COc1ccc(C2CCc3ccc(OC)cc3C2=O)c(OC)c1` (centres undefined), for which the inhibition at 50 µM in series [1] came to 95.2%; in series [5] it was 97.6%. The EC50 was 14.3 µM in series [2] and 15 µM in series [6]. Further, the cytotoxic concentration (CC50) in series [3] is under 50 µM. Moreover, the entries for the “Ratio CC50/EC50” value in series [4] and in series [7] were under 3.5 and under 3.3, respectively.

Consider `COc1ccccc1C1CCc2c(OC)cccc2C1=O` (centres undefined), for which the values for the inhibition at 50 µM in series [1] and in series [5] were 51.7% and 86.6%, respectively. Moreover, the EC50 in series [2] was 48.5 µM; in series [6] it was 10.8 µM. The CC50 in series [3] was over 200 µM. Also, the “Ratio CC50/EC50” value was over 4.1 in series [4] and over 18.5 in series [7].

For `COc1ccc(C2CCc3c(OC)cccc3C2=O)c(OC)c1` (centres undefined), the inhibition at 50 µM in series [1] was 96.5%; in series [5] it was 99.5%. The concentration for a half-maximal effect (EC50) worked out at 12.8 µM in series [2] and 3.2 µM in series [6]. This molecule yielded a CC50 in series [3] of 104 µM. Also, the results for the “Ratio CC50/EC50” value in series [4] and in series [7] were 8.2 and 32.6, respectively.

For `COc1cc2c(cc1OC)C(=O)C(c1ccccc1OC)CC2` (centres undefined), the inhibition at 50 µM in series [1] came out at 60.2%; in series [5] it was 79.9%. Besides, the EC50 in series [2] amounted to 42.5 µM; in series [6] it was 4.8 µM. Besides, the CC50 in series [3] came to 126 µM. The “Ratio CC50/EC50” value is reported as 2.9 in series [4] and 26.2 in series [7].

In the case of `COc1ccc(C2CCc3cc(OC)c(OC)cc3C2=O)c(OC)c1` (centres undefined), the figures for the inhibition at 50 µM in series [1] and in series [5] were 89.6% and 86.8%, respectively. The EC50 was found to be 1.8 µM in series [2] and 4.3 µM in series [6]. In series [3], this molecule yielded a CC50 of over 200 µM. In addition, the figures for the Ratio CC50/EC50 in series [4] and in series [7] were over 111 and over 46.1, respectively.

For `COc1ccccc1C1CCc2c(OC)ccc(OC)c2C1=O` (centres undefined), the inhibition at 50 µM in series [1] was determined as 80.6%; in series [5], 88.8%. In addition, the EC50 turned out to be 8 µM in series [2] and 6.8 µM in series [6]. In series [3], this molecule came in with a CC50 of over 200 µM. In addition, the “Ratio CC50/EC50” value in series [4] was over 24.9; in series [7] it was over 29.5.

`COc1ccc(C2CCc3c(OC)ccc(OC)c3C2=O)c(OC)c1` (centres undefined): the inhibition at 50 µM turned out to be 73.8% in series [1] and 86.2% in series [5]. The EC50 in series [2] was 8.2 µM; in series [6] it was 21.5 µM. Also, the CC50 in series [3] is under 50 µM. Further, the “Ratio CC50/EC50” value in series [4] is recorded as under 6; in series [7] it was under 2.3.

In the case of `COc1cccc2c1CCC(c1ccccc1O)C2=O` (centres undefined), the inhibition at 50 µM in series [1] amounted to 26.1%; in series [5] it was 86%. Further, half-maximal cytotoxicity in series [3] (CC50) was put at 111 µM. In series [6], the EC50 came to 10.8 µM. For the same molecule, the “Ratio CC50/EC50” value in series [7] was 10.2.

As to `COc1ccccc1C1CCc2c(O)ccc(OC)c2C1=O` (centres undefined), the inhibition at 50 µM was determined as 41.2% in series [1] and 44% in series [5]. The molecule also registered a CC50 in series [3] of over 200 µM.

`COc1ccc(O)c2c1C(=O)C(c1ccccc1OCc1ccccc1)CC2` (centres undefined): the inhibition at 50 µM worked out at 99.1% in series [1] and 98% in series [5]. Also, the EC50 was determined as 6.21 µM in series [2] and 4.4 µM in series [6]. The molecule further came in with a CC50 in series [3] of under 50 µM. For the same molecule, the figures for the “Ratio CC50/EC50” value in series [4] and in series [7] were under 8 and under 11.3, respectively.
